{
  "source": "patent US20050027103A1",
  "about": "“Structural and cytoskeleton-associated protein” (priority 2001, published 2005)",
  "tested_on": "expression of SEQ ID NO:33 in early confluent human C3C cells",
  "test": "Microarray analysis of SEQ ID NO:33 expression in response to a steroid",
  "format": "cell-based",
  "conditions": "1, 10, and 100 μM beclomethasone for 1, 3, and 6 h",
  "experimental": "Total RNA is isolated from tissue samples using the guanidinium thiocyanate method and poly(A)^+ RNA is purified using the oligo-(dT) cellulose method. Each poly(A)^+ RNA sample is reverse transcribed using MMLV reverse-transcriptase, 0.05 pg/μl oligo-(dT) primer (21mer), 1×first strand buffer, 0.03 units/μl RNase inhibitor, 500 μM DATP, 500 μM dGTP, 500 μM dTTP, 40 μM dCTP, 40 μM dCTP-Cy3 (BDS) or dCTP-Cy5 (Amersham Biosciences). The reverse transcription reaction is performed in a […] containing 200 ng poly(A)^+ RNA with GENBRIGHT kits (Incyte). Specific control poly(A)^+ RNAs are synthesized by int vitro transcription from non-coding yeast genomic DNA. After incubation at 37° C. for 2 hr, each reaction sample (one with Cy3 and another with Cy5 labeling) is treated with […] of 0.5M sodiumhydroxide and incubated for 20 minutes at 85° C. to the stop the reaction and degrade the RNA. […]\nSequences of the present invention are used to generate array elements. […] PCR amplification uses primers complementary to the vector sequences flanking the cDNA inset Array elements are amplified in thity cycles of PCR from an initial quantity of 1-2 ng to a final quantity greater than 5 μg. […]",
  "data": [
    {"smiles": "C[C@H]1C[C@H]2[C@@H]3CCC4=CC(=O)C=C[C@]4(C)[C@@]3(Cl)[C@@H](O)C[C@]2(C)[C@@]1(O)C(=O)CO", "note": "[beclomethasone]", "values": [
      {"measurement": "expression of SEQ ID NO:33 decreased (microarray analysis)", "result": "at least 2 fold"}
    ]}
  ]
}
